Active and inactive are the calls of the source. The rule behind the calls is not given here.
What was measured:
[1] = system: HL-60; test: Antiproliferative activity against human HL-60 cells assessed as inhibition of cell growth incubated for 72 hrs by MTT assay; assay type: functional, cell-based; details: HL-60, 72 h
[2] = system: HeLa; test: Antiproliferative activity against human HeLa cells assessed as inhibition of cell growth incubated for 72 hrs by MTT assay; assay type: functional, cell-based
[3] = system: Jurkat; test: Antiproliferative activity against human Jurkat cells assessed as inhibition of cell growth incubated for 72 hrs by MTT assay; assay type: functional, cell-based
[4] = system: A549; test: Antiproliferative activity against human A549 cells assessed as inhibition of cell growth incubated for 72 hrs by MTT assay; assay type: functional, cell-based; details: A549, 72 h
[5] = system: MDA-MB-231; test: Antiproliferative activity against human MDA-MB-231 cells assessed as inhibition of cell growth incubated for 72 hrs by MTT assay; assay type: functional, cell-based; details: MDA-MB-231, 72 h
[6] = system: K562; test: Antiproliferative activity against human K562 cells assessed as inhibition of cell growth incubated for 72 hrs by MTT assay; assay type: functional, cell-based; details: K562, 72 h
[7] = Antiproliferative activity against human MRC5 cells assessed as inhibition of cell growth incubated for 72 hrs by MTT assay; assay type: toxicity, cell-based
[8] = system: MCF7; test: Antiproliferative activity against human MCF7 cells assessed as inhibition of cell growth incubated for 72 hrs by MTT assay; assay type: functional, cell-based; details: MCF7, 72 h
[9] = system: Raji; test: Antiproliferative activity against human Raji cells assessed as inhibition of cell growth incubated for 72 hrs by MTT assay; assay type: functional, cell-based
[10] = system: Raji; test: Potency index, ratio of cleistanolate IC50 to test compound IC50 for antiproliferative activity against human Raji cells assessed as inhibition of cell growth incubated for 72 hrs by MTT assay; assay type: functional
[11] = biological target: Cholinesterase (Homo sapiens) (UniProt P06276); test: Inhibition of human BChE at 100 uM using acetylthiocholine iodide as substrate by DTNB reagent based Ellman spectrophotometric analysis relative to control
[12] = system: Vibrio cholerae; test: Antibacterial activity against Vibrio cholerae O139 CIRS 245 assessed as reduction in cell viability incubated for 24 hrs by muller hinton broth microdilution based XTT assay; assay type: functional
[13] = system: Streptococcus pneumoniae; test: Antibacterial activity against Streptococcus pneumoniae ZPM 187 assessed as reduction in cell viability incubated for 24 hrs by muller hinton broth microdilution based XTT assay; assay type: functional
[14] = system: Escherichia coli; test: Antimicrobial activity against Escherichia coli ZPM 132 assessed as reduction in cell viability incubated for 24 hrs by muller hinton broth microdilution based XTT assay; assay type: functional
[15] = system: Candida tropicalis; test: Antifungal activity against Candida tropicalis CCY 29-7-62 assessed as reduction in fungal growth incubated for 48 hrs by muller hinton broth microdilution based XTT assay; assay type: functional
[16] = system: Escherichia coli; test: Antibacterial activity against Escherichia coli ZPM 132 assessed as reduction in cell viability incubated for 24 hrs by muller hinton broth microdilution based XTT assay; assay type: functional
[17] = Potency index, ratio of cleistanolate IC50 to test compound IC50 for antiproliferative activity against human HeLa cells assessed as inhibition of cell growth incubated for 72 hrs by MTT assay; assay type: functional
[18] = system: Raji; test: Potency index, ratio of doxorubicin IC50 to test compound IC50 for antiproliferative activity against human Raji cells assessed as inhibition of cell growth incubated for 72 hrs by MTT assay; assay type: functional
[19] = Potency index, ratio of doxorubicin IC50 to test compound IC50 for antiproliferative activity against human HL-60 cells assessed as inhibition of cell growth incubated for 72 hrs by MTT assay; assay type: functional

Chain of Cholinesterase (Homo sapiens) (P06276 whole entry): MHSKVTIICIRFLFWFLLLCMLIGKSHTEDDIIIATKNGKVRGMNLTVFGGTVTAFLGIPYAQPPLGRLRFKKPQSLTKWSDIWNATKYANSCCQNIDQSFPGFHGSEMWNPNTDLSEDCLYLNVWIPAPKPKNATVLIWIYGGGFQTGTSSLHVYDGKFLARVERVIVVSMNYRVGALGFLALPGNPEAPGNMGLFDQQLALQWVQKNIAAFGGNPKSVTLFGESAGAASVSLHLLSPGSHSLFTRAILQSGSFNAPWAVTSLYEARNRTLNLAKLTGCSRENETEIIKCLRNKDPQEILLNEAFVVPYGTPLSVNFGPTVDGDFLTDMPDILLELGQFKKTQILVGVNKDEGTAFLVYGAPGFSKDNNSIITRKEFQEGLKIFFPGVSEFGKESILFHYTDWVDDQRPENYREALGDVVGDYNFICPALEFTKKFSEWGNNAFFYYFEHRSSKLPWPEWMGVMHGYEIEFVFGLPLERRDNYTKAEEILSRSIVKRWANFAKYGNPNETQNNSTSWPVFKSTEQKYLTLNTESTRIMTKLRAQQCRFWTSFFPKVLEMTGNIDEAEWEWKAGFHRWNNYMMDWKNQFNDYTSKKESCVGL

Row | Structure (SMILES) | IC50 [1] [µM] | IC50 [2] [µM] | IC50 [3] [µM] | IC50 [4] [µM] | IC50 [5] [µM] | IC50 [6] [µM] | IC50 at 72 h [7] [µM] | IC50 [8] [µM] | IC50 [9] [µM] | Ratio IC50 [10] | inhibition [11] | MBC [12] [µg/mL] | MBC [13] [µg/mL] | MIC [14] [µg/mL] | MFC [15] [µg/mL] | MBC [16] [µg/mL] | Ratio IC50 [17] | Ratio IC50 [18] | Ratio IC50 [19]
1 | O=C1C[C@@H](O)[C@@H]([C@@H](O)[C@@H](O)CO)O1 | 19.3 | 12.9 | 20.3 | 23.6 | 19.6 | 16.5 | > 100 | 19.5 | 24.4 |  |  |  |  |  |  |  |  |  | 
2 | CO[C@H]1CC(=O)O[C@H]1[C@H](OC(C)=O)[C@H](COC(=O)c1ccccc1)OC(C)=O | 21 | 7.02 | 14 | 8.32 | 16.1 | 8.23 | > 100 | 5.21 | 11.2 |  |  |  |  |  |  |  |  |  | 
3 | CO[C@@H]1CC(=O)O[C@@H]1[C@@H](OC(C)=O)[C@@H](COC(=O)c1ccccc1)OC(C)=O | 16.5 | 6.31 | 22.1 | 9.78 | 28.4 | 7.23 | > 100 | 13.5 | 31.4 | 2.1 |  |  |  |  |  |  |  |  | 
4 | CO[C@@H]1CC(=O)O[C@@H]1[C@@H](OC(=O)c1ccccc1)[C@H](COC(=O)c1ccccc1)OC(=O)c1ccccc1 | 8.58 | 15.3 | 15.9 | 14.1 | 13.5 | 3.36 | > 100 | 13.2 | 14.1 |  | 40% | > 100 | > 100 | > 1000 | > 100 | > 1000 |  |  | 
5 | O=C1C[C@@H]2O[C@@H](CI)[C@@H](O)[C@@H]2O1 | 16.7 | 20.1 | 22.8 | 24.6 | 17.7 | 15.1 | > 100 | 19.4 | 26.2 |  | inactive | > 100 | > 100 | > 1000 | > 100 | > 1000 |  |  | 
6 | CO[C@@H]1CC(=O)O[C@@H]1[C@@H](O)[C@@H](O)COC(=O)c1ccccc1 | 12.1 | 7.65 | 20.2 | 11.4 | 27.7 | 11.4 | > 100 | 14.4 | 15.4 |  |  |  |  |  |  |  |  |  | 
7 | O=C1C[C@@H]2O[C@@H](CO)[C@@H](O)[C@@H]2O1 | 11.2 | 7.26 | 7.38 | 15.9 | 30 | 5.56 | > 100 | 4.02 | 10.2 | 2.1 |  |  |  |  |  |  |  |  | 
8 | C=C[C@@H](OCc1ccccc1)[C@@H]1OC(=O)C[C@@H]1O | 11.2 | 54.1 | 11.3 | 22.6 | 21.3 | 3.95 | > 100 | 9.44 | 22.2 |  | 13% | > 100 | > 100 | > 1000 | > 100 | > 1000 |  |  | 
9 | CO[C@H]1CC(=O)O[C@H]1[C@H](O)[C@H](O)COC(=O)c1ccccc1 | 9.45 | 16 | 16.5 | 18.7 | 45.2 | 3.97 | > 100 | 14.1 | 19.7 |  | inactive | > 100 | > 100 | > 1000 | > 100 | > 1000 |  |  | 
10 | C=C[C@@H](OCc1ccccc1)[C@@H]1OC(=O)C[C@@H]1OC | 12.1 | 26.4 | 9.85 | 18.7 | 42.3 | 4.42 | > 100 | 16.9 | 12.9 |  |  |  |  |  |  |  |  |  | 
11 | O=C1C[C@@H](O)[C@@H]([C@@H](O)[C@H](O)CO)O1 | 0.74 | 0.89 | 3.25 | 8.64 | 5.32 | 2.36 | > 100 | 0.63 | 2.64 |  |  |  |  |  |  |  | 2 | 1.1 | 1.3
12 | CO[C@H]1CC(=O)O[C@H]1[C@H](O)[C@@H](O)COC(=O)c1ccccc1 | 10.3 | 10.6 | 32 | 29.6 | 19.9 | 9.89 | > 100 | 12.8 | 21 |  |  |  |  |  |  |  |  |  | 
13 | C=C[C@H](O)[C@H]1OC(=O)C[C@H]1OC | 11.7 | 10.9 | 12.8 | 28.3 | 11.8 | 8.05 | > 100 | 4.23 | 32.9 |  | inactive | > 100 | > 100 | > 1000 | > 100 | > 1000 |  |  | 
14 | CO[C@H]1CC(=O)O[C@H]1[C@H](OC(C)=O)[C@@H](COC(=O)c1ccccc1)OC(C)=O | 19.4 | 23.8 | 24.2 | 21.4 | 13.2 | 16.2 | 87.9 | 29.4 | 27.7 |  | 85% | > 100 | > 100 | > 1000 | > 100 | > 1000 |  |  | 
15 | CO[C@H]1CC(=O)O[C@H]1[C@H](OC(=O)c1ccccc1)[C@@H](COC(=O)c1ccccc1)OC(=O)c1ccccc1 | 6.38 | 5.58 | 23.4 | 24.1 | 23.7 | 17.9 | > 100 | 1.31 | 17 |  |  |  |  |  |  |  |  |  | 
16 | O=C1C[C@H]2O[C@@H]3CO[C@@H]3[C@H]2O1 | 15.6 | 1.2 | 10.4 | 18.6 | 5.36 | 2.03 | > 100 | 1.05 | 15.7 |  |  |  |  |  |  |  | 2.5 |  | 
17 | O=C1C[C@H]2O[C@H](CI)[C@H](O)[C@H]2O1 |  |  |  |  |  |  |  |  |  |  | inactive | > 100 | > 100 | > 1000 | > 100 | > 1000 |  |  | 
18 | CO[C@@H]1CC(=O)O[C@@H]1[C@@H](O)[C@H](O)COC(=O)c1ccccc1 | 18.9 | 8.61 | 15.6 | 25.6 | 31.2 | 10.6 | > 100 | 15.6 | 19.4 |  |  |  |  |  |  |  |  |  | 
19 | Nc1c2c(nc3ccccc13)CCCC2 |  |  |  |  |  |  |  |  |  |  | 96% |  |  |  |  |  |  |  | 
20 | C=C[C@@H](O)[C@@H]1OC(=O)C[C@@H]1OC | 7.17 | 4.52 | 5.36 | 19.6 | 11.9 | 2.74 | > 100 | 9.2 | 18.6 |  |  |  |  |  |  |  |  |  | 
21 | C=C[C@H](OCc1ccccc1)[C@H]1OC(=O)C[C@H]1OC | 12.7 | 11.5 | 11.6 | 27.9 | 12.6 | 7.59 | > 100 | 5.67 | 34.4 |  |  |  |  |  |  |  |  |  | 
22 | C=C[C@H](OCc1ccccc1)[C@H]1OC(=O)C[C@H]1O | 23.4 | 17 | 29.1 | 17.2 | 12.9 | 25.1 | > 100 | 19.2 | 34.8 |  |  |  |  |  |  |  |  |  | 
23 | CO[C@@H]1CC(=O)O[C@@H]1[C@@H](OC(C)=O)[C@H](COC(=O)c1ccccc1)OC(C)=O | 11 | 2.45 | 26.3 | 25.4 | 21.7 | 12 | 94.8 | 5.4 | 22.3 |  | 35% | > 100 | > 100 | > 1000 | > 100 | > 1000 |  |  | 
24 | CO[C@@H]1CC(=O)O[C@@H]1[C@H]1OC(=O)O[C@H]1COC(=O)c1ccccc1 | 10.6 | 7.03 | 16 | 13.4 | 25.8 | 10 | > 100 | 4.31 | 21.3 |  | 51% |  |  |  |  |  |  |  | 

Reference: ChEMBL document CHEMBL6103580, “Synthesis and biological evaluation of natural cleistanolate, its enantiomer and analogues” (Eur J Med Chem, 2025)
